In patent publication US7135475B2, “Amide substituted xanthine derivatives” (Hoffmann-La Roche Inc., priority 2002, dated 2006) one finds IC50 and melting point data, which are given here for nine molecules.

For data set [1], the target named is T1, recombinant human cytosolic PEPCK (Homo sapiens, UniProt P35558).
T1 sequence (P35558 1-622): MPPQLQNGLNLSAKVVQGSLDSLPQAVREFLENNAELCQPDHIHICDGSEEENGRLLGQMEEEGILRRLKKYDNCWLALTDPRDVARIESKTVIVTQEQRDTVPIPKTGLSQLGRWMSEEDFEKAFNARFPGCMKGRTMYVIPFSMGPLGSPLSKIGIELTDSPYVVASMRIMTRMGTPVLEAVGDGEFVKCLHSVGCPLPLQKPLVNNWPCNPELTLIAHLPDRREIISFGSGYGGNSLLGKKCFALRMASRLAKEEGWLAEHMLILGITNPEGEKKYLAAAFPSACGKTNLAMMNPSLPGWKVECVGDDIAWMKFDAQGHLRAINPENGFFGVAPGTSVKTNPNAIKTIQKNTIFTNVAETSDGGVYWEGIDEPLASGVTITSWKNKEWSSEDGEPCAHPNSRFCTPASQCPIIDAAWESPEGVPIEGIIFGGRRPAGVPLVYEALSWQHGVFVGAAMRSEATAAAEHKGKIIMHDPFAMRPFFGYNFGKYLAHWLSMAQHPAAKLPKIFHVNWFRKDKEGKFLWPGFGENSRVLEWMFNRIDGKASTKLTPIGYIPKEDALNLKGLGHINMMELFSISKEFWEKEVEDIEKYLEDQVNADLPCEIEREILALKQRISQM
Nature of the data set: PEPCK enzyme assay (coupled pyruvate kinase/lactate dehydrogenase, absorbance at 340). It is filed as biochemical. The following applies: recombinant human cytosolic GST-PEPCK; GTP and OAA at 3 fold and 10 fold Km; final DMSO 10%; room temperature, twenty minutes; read-out: In vitro IC50. As for the experimental part: E. coli cells expressing GST-PEPCK were suspended in 5 volumes of lysis buffer (50 mM Tris-hydroxymethyl aminomethyl (TRIS), 150 mM sodium chloride (NaCl), 10 mM ethylene-diametetraacetic acid (EDTA), 5 mM dithiothreitol(DTT), 1% Nonidet P-40, pH 7.4) in the presence of protease inhibitors, incubated with lysozyme at 200 micrograms/ml for 30 min. at room temperature, and sonicated 4×30 seconds at 4 degrees C. After centrifugation at 12,000×g for 20 min. to remove insoluble material, the supernatant was loaded onto glutathione Sepharose (Pharmacia), washed with lysis buffer followed by washing with lysis buffer in the absence of NP-40. GST-PEPCK was eluted with the same buffer containing 20 mM glutathione. The eluted protein was concentrated and dialyzed against 25 mM Hepes(N-[2-hydroxyethyl]piperazine-N′[2-ethanesulfonic acid), 150 mM NaCl, 2.5 mM EDTA, 5 mM DTT, 30% glycerol, pH 7.4, and stored at −20 ° C.
The inhibitory effect of the compounds of the present invention on PEPCK enzymatic activity was determined using recombinant human cytosolic PEPCK, expressed and purified from E.coli as a GST-fusion. Guanosine triphosphate (GTP) and manganese dependent PEPCK enzyme activity catalyzed the decarboxylation of oxalacetate leading to the formation of guanosine diphosphate (GDP) and phosphoenol pyruvate (PEP). This reaction is coupled to pyruvate kinase and lactate dehydrogenase catalyzed reactions and the overall reaction rate determined by measuring the change in absorbance at 340 nm (Chang, H. C. and Lane M. D., J. Biol.Chem. 241:2413–2420, 1966). The following modifications were made to the protocol: 2.5 μg of recombinant, human cytosolic glutathione-S-transferase (GST)-PEPCK was added to a reaction mixture at room temperature which contained 0.3 mM GTP, 0.3 mM oxaloacetate (OAA), 3 mM magnesium chloride (MgCl2), 0.075 mM manganese chloride (MnCl2), 30 mM potassium phosphates (KPO4), pH 7.6, 1 mM dithiothreitol (DTT), 0.2 mM adenosine diphosphate (ADP), 1 mM nicotinamide adenine dinucleotide, reduced form (NADH), 0.9 Units/ml each of pyruvate kinase and lactate dehydrogenase and 1 mg/ml bovine serum albumin (BSA). Test compounds were added such that final concentration of DMSO was 10%. Reactions were run for twenty minutes.
Km values for GTP and OAA were determined according to Michelis-Menton conditions as described in Cornish-Bowden (Fundamentals of Enzyme Kinetics, 1995) in essentially the coupled assay conditions described above. […] Test compounds were added to reactions over a range of concentrations and IC50's were calculated from plots of inhibitor concentration versus enzyme rate. This method of determination of IC50 values is equally applicable to calculations based on PEPCK cellular assay.
The in vitro biological activity of several representative preferred compounds of the present invention in the foregoing PEPCK enzymatic assay is presented in Table 1.

One may read the IC50 as the concentration at which inhibition is half-maximal. Regarding `CN(C(=O)c1cnccn1)c1ccc(Cc2nc3c([nH]2)c(=O)n(Cc2ccccc2F)c(=O)n3CC2CC2)cc1` [Example 99, Pyrazine-2-carboxylic acid {4-[3-cyclopropylmethyl-1-(2-fluorobenzyl)-2,6-dioxo-2,3,6,7-tetrahydro-1H-purin-8-ylmethyl]-phenyl}-methyl-amide], the IC50 in data set [1] came out at 460 nM. `CN(C(=O)c1cncnc1)c1ccc(Cc2nc3c([nH]2)c(=O)n(Cc2ccccc2F)c(=O)n3CC2CC2)cc1` [Example 96, Pyrimidine-5-carboxylic acid {4-[3-cyclopropylmethyl-1-(2-fluorobenzyl)-2,6-dioxo-2,3,6,7-tetrahydro-1H-purin-8-ylmethyl]-phenyl}-methyl-amide]: the IC50 in data set [1] was found to be 380 nM. Still for that read-out and setting: as for `Cc1nn(C)c(Cl)c1C(=O)N(C)c1ccc(Cc2nc3c([nH]2)c(=O)n(Cc2ccccc2F)c(=O)n3CC2CC2)cc1` [Example 104, 3-Chloro-1,5-dimethyl-1H-pyrazole-4-carboxylic acid {4-[3-cyclopropylmethyl-1-(2-fluorobenzyl)-2,6-dioxo-2,3,6,7-tetrahydro-1H-purin-8-ylmethyl]-phenyl}-methyl-amide], the figure is 280 nM; as for `Cc1nocc1C(=O)N(C)c1ccc(Cc2nc3c([nH]2)c(=O)n(Cc2ccccc2F)c(=O)n3CC2CC2)cc1` [Example 109, 3-Methyl-isoxazole-4-carboxylic acid {4-[3-cyclopropylmethyl-1-(2-fluorobenzyl)-2,6-dioxo-2,3,6,7-tetrahydro-1H-purin-8-ylmethyl]-phenyl}-methyl-amide], 570 nM.

Consider `CC(=O)Nc1csc(C)c1C(=O)N(C)c1ccc(Cc2nc3c([nH]2)c(=O)n(Cc2ccccc2F)c(=O)n3CC2CC2)cc1` [Example 113, 4-Acetylamino-2-methyl-thiophene-3-carboxylic acid {4-[3-cyclopropylmethyl-1-(2-fluorobenzyl)-2,6-dioxo-2,3,6,7-tetrahydro-1H-purin-8-ylmethyl]-phenyl}-methyl-amide], for which the IC50 in data set [1] amounted to 740 nM. Usually melting point stands for the temperature of the solid-liquid transition. With `CCCCn1c(=O)n(Cc2ccccc2)c(=O)c2[nH]c(Cc3ccc(N4C(=O)CCC4=O)cc3)nc21` [Example 65, 1-Benzyl-3-butyl-8-[4-(2,5-dioxo-pyrrolidin-1-yl)-benzyl]-3,7-dihydro-purine-2,6-dione], the melting point is 208 to 212 °C. Take `Cc1nnsc1C(=O)N(C)c1ccc(Cc2nc3c([nH]2)c(=O)n(Cc2ccccc2F)c(=O)n3CC2CC2)cc1` [Example 108, 4-Methyl-[1,2,3]thiadiazole-5-carboxylic acid {4-[3-cyclopropylmethyl-1-(2-fluorobenzyl)-2,6-dioxo-2,3,6,7-tetrahydro-1H-purin-8-ylmethyl]-phenyl}-methyl-amide]: in data set [1], the IC50 turned out to be 550 nM. With `Cc1nn(C)cc1C(=O)N(C)c1ccc(Cc2nc3c([nH]2)c(=O)n(Cc2ccccc2F)c(=O)n3CC2CC2)cc1` [Example 107, 1,3-Dimethyl-1H-pyrazole-4-carboxylic acid {4-[3-cyclopropylmethyl-1-(2-fluorobenzyl)-2,6-dioxo-2,3,6,7-tetrahydro-1H-purin-8-ylmethyl]-phenyl}-methyl-amide], in data set [1], the IC50 was found to be 500 nM.

For the molecule `CN(C(=O)c1cccnc1O)c1ccc(Cc2nc3c([nH]2)c(=O)n(Cc2ccccc2F)c(=O)n3CC2CC2)cc1` [Example 101, N-{4-[3-Cyclopropylmethyl-1-(2-fluorobenzyl)-2,6-dioxo-2,3,6,7-tetrahydro-1H-purin-8-ylmethyl]-phenyl}-2-hydroxy-N-methyl-nicotinamide], in data set [1], the IC50 is 630 nM.
